Like-named read-outs stand apart in the source and are kept apart here.
Columns and labels:
Type in all cases: in vivo
Commelina benghalensis [1] = assay: Greenhouse post-emergence (POST) herbicidal test on COMBE; settings: 480 h, use rate 4 gai/ha, 20 DAT
Method in brief: (§1)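 POST spray at 3–15 cm plant height, BBCH stage as given; loamy sand, ~3.0% humus; 10-25° C / 20-35° C per species; 0–100 damage scale; read 20 DAT.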

Echinochloa crus-galli [2] = assay: Greenhouse post-emergence (POST) herbicidal test on ECHCG; settings: Echinochloa crus-galli, post-emergence; for inhibition at 4 g/ha: use rate 4 gai/ha
Method in brief: as §1

Setaria viridis = assay: Greenhouse post-emergence (POST) herbicidal test on SETVI; settings: 480 h, 20 DAT
Method in brief: as §1

Abutilon theophrasti = assay: Greenhouse post-emergence (POST) herbicidal test on ABUTH; settings: Abutilon theophrasti, post-emergence
Method in brief: as §1

Echinochloa crus-galli [3] = assay: Greenhouse pre-emergence (PRE) herbicidal test on ECHCG; settings: Echinochloa crus-galli, pre-emergence, PRE
Brachiaria decumbens = assay: Greenhouse pre-emergence (PRE) herbicidal test on BRADC; settings: Urochloa decumbens, use rate 8 gai/ha
Method in brief: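 Herbicidal effect is scored from 0 (no damage) to 100 (no emergence or above-ground parts destroyed), 20 days after treatment. Application is pre-emergent onto sown pots, with components given as a 5% by weight emulsion concentrate in the spray liquor.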

Alopecurus myosuroides = assay: Greenhouse pre-emergence (PRE) herbicidal test on ALOMY
Method in brief: (§2)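 Pre-emergence greenhouse assay: sown loamy-sand pots (humus approx. 3.0%) were kept under transparent hoods until rooting, then grown at species-appropriate 10-25° C or 20-35° C. Response ratings of 0 (no damage) to 100 (no plants emerged) were recorded 20 days after application.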

AMAPA [4] = assay: Greenhouse pre-emergence (PRE) herbicidal test on AMAPA; settings: pre-emergence; for inhibition at 8 g/ha: use rate 8 gai/ha
AMAPA [5] = assay: Greenhouse post-emergence (POST) herbicidal test on AMAPA; settings: post-emergence, 480 h, use rate 2 gai/ha, 20 DAT
Amaranthus retroflexus = assay: Greenhouse post-emergence (POST) herbicidal test on AMARE; settings: Amaranthus retroflexus, post-emergence
Method in brief: as §1

Commelina benghalensis [6] = assay: Greenhouse pre-emergence (PRE) herbicidal test on COMBE
Method in brief: as §2

Polygonum convolvulus = assay: Greenhouse pre-emergence (PRE) herbicidal test on POLCO; settings: Fallopia convolvulus, pre-emergence, use rate 8 gai/ha
From the text: The culture containers used were plastic pots containing loamy sand with approximately 3.0% of humus as substrate. The seeds of the test plants were sown separately for each species.
For the pre-emergence treatment, the active compounds, suspended or emulsified in water, were applied directly after sowing by means of finely distributing nozzles. The containers were irrigated gently to promote germination and growth and subsequently covered with transparent plastic hoods until the plants had rooted. This cover caused uniform germination of the test plants unless this was adversely affected by the active compounds.
Depending on the species, the plants were kept at 10-25° C. and 20-35° C., respectively.
The test period extended over 2 to 4 weeks. During this time, the plants were tended and their response to the individual treatments was evaluated.
Evaluation was carried out using a scale from 0 to 100. 100 means no emergence of the plants, or complete destruction of at least the above-ground parts, and 0 means no damage or normal course of growth. A good herbicidal activity is given at values of at least 70, and very good herbicidal activity is given at values of at least 85.
If not stated differently, the respective components A and B, and if appropriate, C were formulated as a 5% by weight strength emulsion concentrate and, with addition of the amount of solvent system, introduced into the spray liquor used for applying the active compound.
As indicated application was either post emergent (POST) at the respective growth stage (GS) of the weed (BBCH code), or pre-emergent (PRE).
Assessment was 20 days after treatment (DAT).

[7] = 240 h, use rate 4 gai/ha, 10 DAT
[8] = 240 h, use rate 16 gai/ha, 10 DAT

Compound: COc1c(Br)cc(F)c(F)c1Nc1nc(N)nc(C(C)(C)F)n1 [Compound I-2]
- inhibition at 4 g/ha (Commelina benghalensis [1]): 0%
- pest or weed control at 2 g/ha (Echinochloa crus-galli [2]; 432 h, POST, ECHCG, I-2 solo 2 gai/ha, 18 DAT): 0%
- pest or weed control at 8 g/ha (Echinochloa crus-galli [2]; 432 h, POST, ECHCG, I-2 solo 8 gai/ha, 18 DAT): 15%
- inhibition at 2 g/ha (Echinochloa crus-galli [2]; 480 h, ECHCG POST, 20 DAT, use rate 2 gai/ha, read-out: % activity): 0%
- inhibition at 4 g/ha (Echinochloa crus-galli [2]; 480 h, POST, ECHCG, 20 DAT): 0%
- inhibition at 4 g/ha (Echinochloa crus-galli [2]; POST, ECHCG): 25%
- inhibition at 4 g/ha (Setaria viridis; use rate 4 gai/ha): 20%
- inhibition at 8 g/ha (Setaria viridis; use rate 8 gai/ha): 25%
- pest or weed control at 2 g/ha (Abutilon theophrasti; 432 h, POST, ABUTH, I-2 solo 2 gai/ha, 18 DAT): 20%
- pest or weed control at 8 g/ha (Abutilon theophrasti; 432 h, POST, ABUTH, I-2 solo 8 gai/ha, 18 DAT): 20%
- inhibition at 2 g/ha (Abutilon theophrasti; 480 h, ABUTH POST, 20 DAT, use rate 2 gai/ha, read-out: % activity): 10%
- pest or weed control at 2 g/ha (Abutilon theophrasti; 480 h, POST, 2 gai/ha, 20 DAT): 10%
- inhibition at 2 g/ha (Abutilon theophrasti; 480 h, POST, ABUTH, 2 gai/ha, 20 DAT, read-out: % activity solo application): 15%
- inhibition at 8 g/ha (Abutilon theophrasti; 480 h, POST, ABUTH, 8 gai/ha, 20 DAT, read-out: % activity solo application): 40%
- inhibition at 8 g/ha (Abutilon theophrasti; 480 h, POST, ABUTH, use rate 8 gai/ha, 20 DAT, read-out: solo application % activity): 40%
- inhibition at 4 g/ha (Echinochloa crus-galli [3]; [7]): 20%
- inhibition at 8 g/ha (Echinochloa crus-galli [3]; 240 h, use rate 8 gai/ha, 10 DAT, read-out: % activity): 20%
- inhibition at 16 g/ha (Echinochloa crus-galli [3]; [8]): 25%
- pest or weed control at 2 g/ha (Echinochloa crus-galli [3]; 432 h, ECHCG, I-2 solo 2 gai/ha, 18 DAT): 10%
- pest or weed control at 8 g/ha (Echinochloa crus-galli [3]; 432 h, ECHCG, I-2 solo 8 gai/ha, 18 DAT): 25%
- inhibition at 2 g/ha (Echinochloa crus-galli [3]; 480 h, ECHCG, 2 gai/ha, 20 DAT, read-out: % activity solo application): 0%
- inhibition at 8 g/ha (Echinochloa crus-galli [3]; 480 h, ECHCG, 8 gai/ha, 20 DAT, read-out: % activity solo application): 90%
- inhibition at 2 g/ha (Echinochloa crus-galli [3]; 480 h, ECHCG, use rate 2 gai/ha, 20 DAT, read-out: solo application % activity): 0%
- inhibition at 8 g/ha (Echinochloa crus-galli [3]; 480 h, ECHCG, use rate 8 gai/ha, 20 DAT, read-out: solo application % activity): 90%
- pest or weed control at 2 g/ha (Echinochloa crus-galli [3]; 480 h, 2 gai/ha, 20 DAT): 55%
- inhibition at 8 g/ha (Brachiaria decumbens; BRADC PRE): 80%
- inhibition at 8 g/ha (Brachiaria decumbens; PRE, BRADC): 70%
- % activity (Alopecurus myosuroides; ALOMY PRE, use rate 8 gai/ha): 85%
- pest or weed control at 2 g/ha (Alopecurus myosuroides; Alopecurus myosuroides, pre-emergence, 432 h, PRE, ALOMY, I-2 solo 2 gai/ha, 18 DAT, read-out: % activity): 5%
- pest or weed control at 8 g/ha (Alopecurus myosuroides; Alopecurus myosuroides, pre-emergence, 432 h, PRE, ALOMY, I-2 solo 8 gai/ha, 18 DAT): 75%
- pest or weed control at 8 g/ha (Alopecurus myosuroides; Alopecurus myosuroides, pre-emergence, 480 h, PRE, 8 gai/ha, 20 DAT): 5%
- inhibition at 2 g/ha (Alopecurus myosuroides; Alopecurus myosuroides, pre-emergence, 480 h, PRE, ALOMY, 2 gai/ha, 20 DAT, read-out: % activity solo application): 20%
- inhibition at 8 g/ha (Alopecurus myosuroides; Alopecurus myosuroides, pre-emergence, 480 h, PRE, ALOMY, 8 gai/ha, 20 DAT, read-out: % activity solo application): 75%
- inhibition at 8 g/ha (Alopecurus myosuroides; Alopecurus myosuroides, pre-emergence, 480 h, PRE, ALOMY, use rate 8 gai/ha, 20 DAT, read-out: solo application % activity): 75%
- inhibition at 16 g/ha (Alopecurus myosuroides; Alopecurus myosuroides, pre-emergence, 480 h, PRE, ALOMY, use rate 16 gai/ha, 20 DAT): 95%
- inhibition at 2 g/ha (Alopecurus myosuroides; Alopecurus myosuroides, pre-emergence, 480 h, PRE, use rate 2 gai/ha, 20 DAT, read-out: % activity): 40%
- inhibition at 8 g/ha (Alopecurus myosuroides; Alopecurus myosuroides, pre-emergence, ALOMY PRE, use rate 8 gai/ha, read-out: % activity): 70%
- inhibition at 2 g/ha (Alopecurus myosuroides; Alopecurus myosuroides, pre-emergence, PRE, ALOMY, use rate 2 gai/ha, read-out: % activity): 20%
- inhibition at 4 g/ha (AMAPA [4]; [7]): 40%
- inhibition at 8 g/ha (AMAPA [4]; 240 h, 10 DAT): 70%
- inhibition at 16 g/ha (AMAPA [4]; [8]): 75%
- inhibition at 2 g/ha (AMAPA [4]; 480 h, use rate 2 gai/ha, 20 DAT): 40%
- inhibition at 8 g/ha (AMAPA [4]; 480 h, 20 DAT): 75%
- inhibition at 2 g/ha (AMAPA [5]): 30%
- pest or weed control at 2 g/ha (Amaranthus retroflexus; 432 h, POST, AMARE, I-2 solo 2 gai/ha, 18 DAT): 55%
- pest or weed control at 8 g/ha (Amaranthus retroflexus; 432 h, POST, AMARE, I-2 solo 8 gai/ha, 18 DAT): 70%
- inhibition at 2 g/ha (Amaranthus retroflexus; 480 h, AMARE POST, 20 DAT, use rate 2 gai/ha, read-out: % activity): 65%
- inhibition at 8 g/ha (Amaranthus retroflexus; 480 h, AMARE POST, 20 DAT, use rate 8 gai/ha, read-out: % activity): 65%
- pest or weed control at 8 g/ha (Amaranthus retroflexus; 480 h, POST, 8 gai/ha, 20 DAT): 65%
- inhibition at 2 g/ha (Amaranthus retroflexus; 480 h, POST, AMARE, 2 gai/ha, 20 DAT, read-out: % activity solo application): 40%
- inhibition at 8 g/ha (Amaranthus retroflexus; 480 h, POST, AMARE, 8 gai/ha, 20 DAT, read-out: % activity solo application): 75%
- inhibition at 2 g/ha (Amaranthus retroflexus; 480 h, POST, AMARE, use rate 2 gai/ha, 20 DAT, read-out: solo application % activity): 40%
- inhibition at 2 g/ha (Amaranthus retroflexus; 480 h, POST, use rate 2 gai/ha, 20 DAT, read-out: % activity): 75%
- pest or weed control at 8 g/ha (Commelina benghalensis [6]; Commelina benghalensis, pre-emergence, 432 h, PRE, COMBE, I-2 solo 8 gai/ha, 18 DAT): 25%
- inhibition at 2 g/ha (Commelina benghalensis [6]; Commelina benghalensis, pre-emergence, 480 h, COMBE PRE, 20 DAT, use rate 2 gai/ha, read-out: % activity): 20%
- inhibition at 8 g/ha (Commelina benghalensis [6]; Commelina benghalensis, pre-emergence, 480 h, COMBE PRE, 20 DAT, use rate 8 gai/ha, read-out: % activity): 60%
- inhibition at 2 g/ha (Commelina benghalensis [6]; Commelina benghalensis, pre-emergence, 480 h, PRE, COMBE, 2 gai/ha, 20 DAT, read-out: % activity solo application): 10%
- inhibition at 8 g/ha (Commelina benghalensis [6]; Commelina benghalensis, pre-emergence, 480 h, PRE, COMBE, 8 gai/ha, 20 DAT, read-out: % activity solo application): 45%
- inhibition at 8 g/ha (Commelina benghalensis [6]; Commelina benghalensis, pre-emergence, 480 h, PRE, COMBE, use rate 8 gai/ha, 20 DAT, read-out: solo application % activity): 45%
- inhibition at 8 g/ha (Commelina benghalensis [6]; Commelina benghalensis, pre-emergence, COMBE PRE, use rate 8 gai/ha, read-out: % activity): 25%
- inhibition at 4 g/ha (Commelina benghalensis [6]; Commelina benghalensis, pre-emergence, PRE, COMBE, use rate 4 gai/ha): 10%
- % activity (Commelina benghalensis [6]; PRE, COMBE, use rate 4 gai/ha): 15%
- inhibition at 8 g/ha (Polygonum convolvulus): 80%
